According to ChEMBL document CHEMBL3885861, “Open TG-GATES”:

Organism: Rattus norvegicus
Experiment: Open TG-GATES - Regimen: Single
Type: toxicity, organism-based, Sprague-Dawley
Set-up: regimen Single, gender Male, age 6 weeks
Conditions: in vivo, po, 30 mg/kg, route gavage, dose level Low; for APTT / Bas / Eos / Fbg / Hb / Ht / Lym / MCH / MCHC / MCV / Mono / Neu / PT / Plat / RBC / Ret / WBC: tissue Blood; for KIDNEY_L / KIDNEY_R / KIDNEY_TOTAL: tissue Kidney; for LIVER: tissue Liver; for A/G / ALP / ALT / AST / BUN / CRE / Ca / Cl / DBIL / GLC / IP / K / LDH / Na / PL / RALB / TBIL / TC / TG / TP / gamma-GTP: tissue Plasma

## Cc1cccc(Nc2ccccc2C(=O)O)c1C [MEFENAMIC ACID]
3 h
  TERMINAL_BW: 215.4 g
  APTT: 19 s
  Bas: 0%
  Eos: 1%
  Fbg: 214.4 mg/dL
  Hb: 13.3 g/dL
  Ht: 37.7%
  Lym: 79.6%
  MCH: 22 pg
  MCHC: 35.3%
  MCV: 62.1 fL
  Mono: 2.2%
  Neu: 15.4%
  PT: 12.4 s
  Plat: 118.3 x10_4/uL
  RBC: 607.2 x10_4/ul
  Ret: 7.3%
  WBC: 91.2 x10_2/uL
  KIDNEY_L: 1 g
  KIDNEY_R: 1 g
  KIDNEY_TOTAL: 2 g
  LIVER: 9.5 g
  A/G: 1.6
  ALP: 842.4 IU/L
  ALT: 36.2 IU/L
  AST: 68.8 IU/L
  BUN: 11 mg/dL
  CRE: 0.4 mg/dL
  Ca: 10.7 mg/dL
  Cl: 103.6 meq/L
  DBIL: 0.074 mg/dL
  GLC: 189.8 mg/dL
  IP: 8.8 mg/dL
  K: 4.1 meq/L
  LDH: 197.4 IU/L
  Na: 141.2 meq/L
  PL: 134.8 mg/dL
  RALB: 3.4 g/dL
  TBIL: 0.1 mg/dL
  TC: 73.4 mg/dL
  TG: 49.2 mg/dL
  TP: 5.4 g/dL
  gamma-GTP: 1.2 IU/L
6 h
  TERMINAL_BW: 213 g
  APTT: 18.5 s
  Bas: 0%
  Eos: 1%
  Fbg: 226.6 mg/dL
  Hb: 13.4 g/dL
  Ht: 37.4%
  Lym: 76.8%
  MCH: 22.3 pg
  MCHC: 35.8%
  MCV: 62.5 fL
  Mono: 2.6%
  Neu: 18.2%
  PT: 12.6 s
  Plat: 118.7 x10_4/uL
  RBC: 599 x10_4/ul
  Ret: 7.5%
  WBC: 86.8 x10_2/uL
  KIDNEY_L: 1 g
  KIDNEY_R: 1 g
  KIDNEY_TOTAL: 2 g
  LIVER: 9.5 g
  A/G: 1.7
  ALP: 972 IU/L
  ALT: 37.4 IU/L
  AST: 65.2 IU/L
  BUN: 9.8 mg/dL
  CRE: 0.3 mg/dL
  Ca: 10.5 mg/dL
  Cl: 102.6 meq/L
  DBIL: 0.07 mg/dL
  GLC: 191.2 mg/dL
  IP: 8.7 mg/dL
  K: 4 meq/L
  LDH: 168.4 IU/L
  Na: 140.2 meq/L
  PL: 136.6 mg/dL
  RALB: 3.4 g/dL
  TBIL: 0.1 mg/dL
  TC: 77.8 mg/dL
  TG: 58 mg/dL
  TP: 5.4 g/dL
  gamma-GTP: 1 IU/L
9 h
  TERMINAL_BW: 211.9 g
  APTT: 18.5 s
  Bas: 0%
  Eos: 1%
  Fbg: 214.2 mg/dL
  Hb: 13.3 g/dL
  Ht: 37.1%
  Lym: 79.8%
  MCH: 21.4 pg
  MCHC: 35.7%
  MCV: 60 fL
  Mono: 3%
  Neu: 14.6%
  PT: 12.9 s
  Plat: 120.5 x10_4/uL
  RBC: 621.4 x10_4/ul
  Ret: 7.2%
  WBC: 68.9 x10_2/uL
  KIDNEY_L: 0.9 g
  KIDNEY_R: 1 g
  KIDNEY_TOTAL: 1.9 g
  LIVER: 8.5 g
  A/G: 1.6
  ALP: 921.4 IU/L
  ALT: 30.2 IU/L
  AST: 62 IU/L
  BUN: 10.8 mg/dL
  CRE: 0.3 mg/dL
  Ca: 10.5 mg/dL
  Cl: 102.4 meq/L
  DBIL: 0.066 mg/dL
  GLC: 192.6 mg/dL
  IP: 9.1 mg/dL
  K: 3.8 meq/L
  LDH: 164.8 IU/L
  Na: 139.8 meq/L
  PL: 140.2 mg/dL
  RALB: 3.3 g/dL
  TBIL: 0.1 mg/dL
  TC: 79 mg/dL
  TG: 42.8 mg/dL
  TP: 5.3 g/dL
  gamma-GTP: 1 IU/L
24 h
  TERMINAL_BW: 227.6 g
  APTT: 18.2 s
  Bas: 0%
  Eos: 1%
  Fbg: 227.4 mg/dL
  Hb: 13.4 g/dL
  Ht: 38.5%
  Lym: 76.2%
  MCH: 22.3 pg
  MCHC: 34.9%
  MCV: 63.9 fL
  Mono: 3.4%
  Neu: 17.2%
  PT: 11.9 s
  Plat: 117.8 x10_4/uL
  RBC: 604 x10_4/ul
  Ret: 6.7%
  WBC: 93.5 x10_2/uL
  KIDNEY_L: 1 g
  KIDNEY_R: 1 g
  KIDNEY_TOTAL: 2 g
  LIVER: 10.7 g
  A/G: 1.5
  ALP: 1061.2 IU/L
  ALT: 42.2 IU/L
  AST: 71 IU/L
  BUN: 15 mg/dL
  CRE: 0.4 mg/dL
  Ca: 10.8 mg/dL
  Cl: 102.8 meq/L
  DBIL: 0.096 mg/dL
  GLC: 205.4 mg/dL
  IP: 7.6 mg/dL
  K: 4.2 meq/L
  LDH: 198 IU/L
  Na: 139.6 meq/L
  PL: 161 mg/dL
  RALB: 3.5 g/dL
  TBIL: 0.2 mg/dL
  TC: 80.8 mg/dL
  TG: 116.2 mg/dL
  TP: 5.7 g/dL
  gamma-GTP: 1.4 IU/L
